Legend:
[1] = tested on: subjects with atopic dermatitis; assay: Phase 2 study, tolerability and Treatment Emergent Adverse Events; assay type: in vivo, human
Experimental: Oral Difelikefalin 0.25 mg, 0.5 mg, 1.0 mg, or placebo was administered twice daily (BID) in subjects with atopic dermatitis (baseline validated Investigator's Global Assessment scale for AD: vIGA-ADTM≥2 and body surface area [BSA]≤30%) and moderate-to-severe AD-related pruritus (mean baseline Itch Numerical Rating Scale [I-NRS, 0-10 scale] score ≥5.0). The primary and key secondary endpoints were the change from baseline in the weekly mean of the daily I-NRS score at Week 12, and the proportion of subjects achieving at least a 4-point improvement from baseline in I-NRS score at Week 12, respectively.
There were no deaths in the study. Abdominal pain was the most common TEAE leading to study drug discontinuation in the 1.0 mg dose group (6.5%), compared to placebo (1.6%), 0.25 mg (0%) and 0.5 mg (0%) dose groups.

[2] = Solubility in water; assay type: physicochemical; conditions: acetate salt

| Structure (SMILES) | abdominal pain TEAE leading to study drug discontinuation ([1]; 0.25 mg dose group) [%] | abdominal pain TEAE leading to study drug discontinuation ([1]; 0.5 mg dose group) [%] | abdominal pain TEAE leading to study drug discontinuation ([1]; 1.0 mg dose group) [%] | deaths in the study ([1]; in vivo) | severity of the majority of reported TEAEs ([1]; in vivo) | overall tolerability ([1]; oral, twice daily, 12-week Treatment Period) | most common Treatment Emergent Adverse Events (TEAEs) ([1]; ≥5% in any dose group) | solubility in water [2] |
| --- | --- | --- | --- | --- | --- | --- | --- | --- |
| CC(C)C[C@@H](NC(=O)[C@@H](Cc1ccccc1)NC(=O)[C@H](N)Cc1ccccc1)C(=O)N[C@H](CCCCN)C(=O)N1CCC(N)(C(=O)O)CC1 [Difelikefalin] | 0 | 0 | 6.5 | no deaths | mild or moderate | generally well-tolerated | abdominal pain, nausea, dry mouth, headache, dizziness and hypertension | – |
| CC(=O)O.CC(C)C[C@@H](NC(=O)[C@@H](Cc1ccccc1)NC(=O)[C@H](N)Cc1ccccc1)C(=O)N[C@H](CCCCN)C(=O)N1CCC(N)(C(=O)O)CC1 [Difelikefalin acetate, 4-amino-1-(D-phenylalanyl-D-phenylalanyl-D-leucyl-D-lysyl)piperidine-4-carboxylic acid, acetate salt] | – | – | – | – | – | – | – | soluble in water |

From patent US20230285497A1, “ATOPIC […] WITH KAPPA OPIOID RECEPTOR AGONIST AS ADJUNCT TO TOPICAL CORTICOSTEROID” (Cara Therapeutics, Inc., priority 2022, published 2023)
